# Like-named read-outs stand apart in the source and are kept apart here.
# Molecular target: T1, TRPML1 (Homo sapiens, UniProt Q9GZU1)
# T1 construct: expressed in transfected cells; host or cells: HEK T-REx cells stably expressing GCaMP6f and TRPML1
# Assay: Cellular TRPML1 assay (FLIPR, GCaMP6f calcium read-out)
# Type: cell-based
# How it was run: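 Read-out is GCaMP6f fluorescence over 300 s after compound addition in Ca2+-free Tyrode's buffer, final DMSO 0.5%, on FLIPR Tetra. Cells are HEK T-REx stably co-expressing the indicator and TRPML1, plated 24 h earlier in Optimem + 0.5% FBS and pre-incubated ~10 min at room temperature.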
# [1] = HEKT-REx/GCaMP6f/TRPML1 cells, FLIPR TETRA, kinetic response over 300 seconds, read-out: TRPML1 FLIPR pEC50 (converted)
# T1 sequence (Q9GZU1 whole entry): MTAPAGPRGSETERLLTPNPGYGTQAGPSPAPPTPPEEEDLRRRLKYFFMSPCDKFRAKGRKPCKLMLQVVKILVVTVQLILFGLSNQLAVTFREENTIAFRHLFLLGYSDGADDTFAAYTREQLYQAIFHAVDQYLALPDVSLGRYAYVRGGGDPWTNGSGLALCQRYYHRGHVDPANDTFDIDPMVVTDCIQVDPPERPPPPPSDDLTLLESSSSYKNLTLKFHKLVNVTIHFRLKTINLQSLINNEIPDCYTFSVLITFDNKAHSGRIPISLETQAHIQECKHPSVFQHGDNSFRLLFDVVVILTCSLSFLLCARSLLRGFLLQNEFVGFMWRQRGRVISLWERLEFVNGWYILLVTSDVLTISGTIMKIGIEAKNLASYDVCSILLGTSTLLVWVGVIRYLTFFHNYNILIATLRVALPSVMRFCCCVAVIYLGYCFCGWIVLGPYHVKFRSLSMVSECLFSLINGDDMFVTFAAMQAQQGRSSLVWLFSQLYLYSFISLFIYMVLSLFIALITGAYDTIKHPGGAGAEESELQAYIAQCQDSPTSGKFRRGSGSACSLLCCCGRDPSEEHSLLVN
Structure (SMILES),EC50 [1] [µM],EC50 [µM]
"O=C(Nc1ccc(OC2CCCC2)c(F)c1)c1nc(N2CCCC2)oc1CC(F)(F)F [Example 62, N-[4-(cyclopentyloxy)-3-fluorophenyl]-2-(pyrrolidin-1-yl)-5-(2,2,2-trifluoroethyl)oxazole-4-carboxamide]",1 to 10,–
"Cc1oc(-n2cccc2)nc1C(=O)Nc1ccc(N2CCCCC2)c(F)c1 [Example 113, N-(3-fluoro-4-(piperidin-1-yl)phenyl)-5-methyl-2-(1H-pyrrol-1-yl)oxazole-4-carboxamide]",1 to 10,–
"Cc1oc(N2C3CCC2COC3)nc1C(=O)Nc1ccc(N2CCCCC2)c(F)c1 [Example 98, 2-(3-oxa-8-azabicyclo[3.2.1]octan-8-yl)-N-(3-fluoro-4-(piperidin-1-yl)phenyl)-5-methyloxazole-4-carboxamide]",10 to 100,–
"O=C(Nc1ccc(OC2CCCC2(F)F)c(O)c1)c1nc(N2CCCC2)oc1CC(F)(F)F (centres unmarked) [Example 86, N-{4-[(2,2-difluorocyclopentyl)oxy]-3-hydroxyphenyl}-2-(pyrrolidin-1-yl)-5-(2,2,2-trifluoroethyl)-1,3-oxazole-4-carboxamide]",1 to 10,–
"O=C(Nc1cc(F)c(N2C3CCCC2CC3)c(F)c1)c1nc(N2CCCC2)oc1CC(F)(F)F [Example 210, N-(4-(8-azabicyclo[3.2.1]octan-8-yl)-3,5-difluorophenyl)-2-(pyrrolidin-1-yl)-5-(2,2,2-trifluoroethyl)oxazole-4-carboxamide]",–,0.01 to 1
"CC1CCCN1c1nc(C(=O)Nc2ccc(N3CCCCC3)c(F)c2)c(CC(F)(F)F)o1 (centres unmarked) [Example 29, N-(3-fluoro-4-(piperidin-1-yl)phenyl)-2-(2-methylpyrrolidin-1-yl)-5-(2,2,2-trifluoroethyl)oxazole-4-carboxamide]",1 to 10,–
"COC1(C)CN(c2nc(C(=O)Nc3ccc(O[C@@H]4C[C@@H]5C[C@@H]5C4)c(C#N)c3)c(CC(F)(F)F)o2)C1 [Example 146, N-(4-(cis-bicyclo[3.1.0]hexan-3-yloxy)-3-cyanophenyl)-2-(3-methoxy-3-methylazetidin-1-yl)-5-(2,2,2-trifluoroethyl)oxazole-4-carboxamide]",1 to 10,–
"Cc1cc(NC(=O)c2nc(N3CCCC3)oc2CC(F)(F)F)cc(F)c1N(C)C1CC2CC(C2)C1 (centres unmarked) [Example 217, N-(4-(bicyclo[3.1.1]heptan-3-yl(methyl)amino)-3-fluoro-5-methylphenyl)-2-(pyrrolidin-1-yl)-5-(2,2,2-trifluoroethyl)oxazole-4-carboxamide]",10 to 100,–
"CCc1oc(N2CC(CC)(OC)C2)nc1C(=O)Nc1cc(F)c(O[C@@H]2C[C@@H]3C[C@@H]3C2)cc1F [Example 251, N-(4-(cis-bicyclo[3.1.0]hexan-3-yloxy)-2,5-difluorophenyl)-5-ethyl-2-(3-ethyl-3-methoxyazetidin-1-yl)oxazole-4-carboxamide]",1 to 10,–
"CC1(C)CC(Oc2ccc(NC(=O)c3nc(N4CCCC4)oc3CC(F)(F)F)cc2F)CO1 (centres unmarked) [Example 45, N-{4-[(5,5-dimethyloxolan-3-yl)oxy]-3-fluorophenyl}-2-(pyrrolidin-1-yl)-5-(2,2,2-trifluoroethyl)oxazole-4-carboxamide]",1 to 10,–
"CC(CC(F)(F)F)Oc1ccc(NC(=O)c2nc(N3CCCC3)oc2CC(F)(F)F)cc1F (centres unmarked) [Example 60, N-(3-fluoro-4-((4,4,4-trifluorobutan-2-yl)oxy)phenyl)-2-(pyrrolidin-1-yl)-5-(2,2,2-trifluoroethyl) oxazole-4-carboxamide]",1 to 10,–
"CCc1oc(N2CC(CC)(CC)C2)nc1C(=O)Nc1cc(F)c(O[C@@H]2C[C@@H]3C[C@@H]3C2)c(F)c1 [Example 243, N-(4-(cis-bicyclo[3.1.0]hexan-3-yloxy)-3,5-difluorophenyl)-2-(3,3-diethylazetidin-1-yl)-5-ethyloxazole-4-carboxamide]",0.01 to 1,–
"COCc1oc(N2CCCC2)nc1C(=O)Nc1ccc(OC2CCCC2)c(F)c1 [Example 101, N-[4-(cyclopentyloxy)-3-fluorophenyl]-5-(methoxymethyl)-2-(pyrrolidin-1-yl)oxazole-4-carboxamide]",10 to 100,–
"O=C(Nc1cc(F)c(OC2CC3C[C@H]3C2)c(F)c1)c1nc(N2CC3(C2)CC(F)(F)C3)oc1CC(F)(F)F (stereo partly drawn) [Example 34, N-(4-(cis-bicyclo[3.1.0]hexan-3-yloxy)-3,5-difluorophenyl)-2-(6,6-difluoro-2-azaspiro[3.3]heptan-2-yl)-5-(2,2,2-trifluoroethyl)oxazole-4-carboxamide]",0.01 to 1,–
"Cc1oc(NC2CCCC23CCCO3)nc1C(=O)Nc1ccc(N2CCCCC2)c(F)c1 (centres unmarked) [Example 95, 2-((1-oxaspiro[4.4]nonan-6-yl)amino)-N-(3-fluoro-4-(piperidin-1-yl)phenyl)-5-methyloxazole-4-carboxamide]",10 to 100,–
"Cc1oc(N2CCC3(CCC3)C2)nc1C(=O)Nc1ccc(N2CCCCC2)c(F)c1 [Example 92, N-(3-fluoro-4-(piperidin-1-yl)phenyl)-5-methyl-2-(6-azaspiro[3.4]octan-6-yl)oxazole-4-carboxamide]",10 to 100,–

Structure (SMILES),EC50 [1] [µM],EC50 [µM]
"O=C(Nc1cc(F)c(OC2CC3CCC2C3)c(F)c1)c1nc(N2CCCC2)oc1CC(F)(F)F (centres unmarked) [Example 141, N-(4-(bicyclo[2.2.1]heptan-2-yloxy)-3,5-difluorophenyl)-2-(pyrrolidin-1-yl)-5-(2,2,2-trifluoroethyl)oxazole-4-carboxamide]",0.01 to 1,–
"CCc1oc(N2CC3COCC3C2)nc1C(=O)Nc1cc(F)c(N2CC3CC(C3)C2)c(F)c1 (centres unmarked) [Example 257, N-(4-(3-azabicyclo[3.1.1]heptan-3-yl)-3,5-difluorophenyl)-5-ethyl-2-(tetrahydro-1H-furo[3,4-c]pyrrol-5(3H)-yl)oxazole-4-carboxamide]",1 to 10,–
"COCc1oc(N2CCCC2C)nc1C(=O)Nc1ccc(N2CCCCC2)c(F)c1 (centres unmarked) [Example 103, N-(3-fluoro-4-(piperidin-1-yl)phenyl)-5-(methoxymethyl)-2-(2-methylpyrrolidin-1-yl)oxazole-4-carboxamide]",10 to 100,–
"Cc1oc(N2CCCC2CO)nc1C(=O)Nc1ccc(N2CCCCC2)c(F)c1 (centres unmarked) [Example 93, N-(3-fluoro-4-(piperidin-1-yl)phenyl)-2-(2-(hydroxymethyl)pyrrolidin-1-yl)-5-methyloxazole-4-carboxamide]",10 to 100,–
"COC1CN(c2nc(C(=O)Nc3ccc(OC4CCCC4(F)F)c(F)c3)c(CC(F)(F)F)o2)C1 (centres unmarked) [Example 8, N-(4-((2,2-difluorocyclopentyl)oxy)-3-fluorophenyl)-2-(3-methoxyazetidin-1-yl)-5-(2,2,2-trifluoroethyl)oxazole-4-carboxamide]",1 to 10,–
"O=C(Nc1ccc(OC2CCCOC2)c(F)c1)c1nc(N2CCCC2)oc1CC(F)(F)F (centres unmarked) [Example 66, N-[3-fluoro-4-(oxan-3-yloxy)phenyl]-2-(pyrrolidin-1-yl)-5-(2,2,2-trifluoroethyl)oxazole-4-carboxamide]",1 to 10,–
"O=C(Nc1cc(F)c(OC2CCC3(CC3)C2)c(F)c1)c1nc(N2CCCC2)oc1CC(F)(F)F (centres unmarked) [Example 138, N-(3,5-difluoro-4-(spiro[2.4]heptan-5-yloxy)phenyl)-2-(pyrrolidin-1-yl)-5-(2,2,2-trifluoroethyl)oxazole-4-carboxamide]",0.01 to 1,–
"CCC1(OC)CN(c2nc(C(=O)Nc3cc(F)c(N4CCC5CC5C4)c(F)c3)c(CC(F)(F)F)o2)C1 (centres unmarked) [Example 204, N-(4-(3-azabicyclo[4.1.0]heptan-3-yl)-3,5-difluorophenyl)-2-(3-ethyl-3-methoxyazetidin-1-yl)-5-(2,2,2-trifluoroethyl)oxazole-4-carboxamide]",0.01 to 1,–
"O=C(Nc1ccc(OC2CCCC2)c(O)c1)c1nc(N2CCCC2)oc1CC(F)(F)F [Example 85, N-(4-(cyclopentyloxy)-3-hydroxyphenyl)-2-(pyrrolidin-1-yl)-5-(2,2,2-trifluoroethyl)oxazole-4-carboxamide]",1 to 10,–
"COCC1(COC)CN(c2nc(C(=O)Nc3cc(F)c(O[C@@H]4C[C@@H]5C[C@@H]5C4)c(F)c3)c(CC(F)(F)F)o2)C1 [Example 168, N-(4-(cis-bicyclo[3.1.0]hexan-3-yloxy)-3,5-difluorophenyl)-2-(3,3-bis(methoxymethyl)azetidin-1-yl)-5-(2,2,2-trifluoroethyl)oxazole-4-carboxamide]",0.01 to 1,–
"COC1CCC(Oc2ccc(NC(=O)c3nc(N4CCCC4)oc3CC(F)(F)F)cc2F)C1 (centres unmarked) [Example 43, N-{3-fluoro-4-[(3-methoxycyclopentyl)oxy]phenyl}-2-(pyrrolidin-1-yl)-5-(2,2,2-trifluoroethyl)oxazole-4-carboxamide]",1 to 10,–
"Cc1oc(N2CCCCC2)nc1C(=O)Nc1ccc(N2CCCCC2)c(F)c1 [Example 114, N-(3-fluoro-4-(piperidin-1-yl)phenyl)-5-methyl-2-(piperidin-1-yl)oxazole-4-carboxamide]",10 to 100,–
"O=C(Nc1ccc(OC2CCCC2(F)F)c(F)c1)c1nc(N2CC3(CCOCC3)C2)oc1CC(F)(F)F (centres unmarked) [Example 14, N-(4-((2,2-difluorocyclopentyl)oxy)-3-fluorophenyl)-2-(7-oxa-2-azaspiro[3.5]nonan-2-yl)-5-(2,2,2-trifluoroethyl)oxazole-4-carboxamide]",1 to 10,–
"Cc1oc(N(C)C)nc1C(=O)Nc1ccc(N2CCCCC2)c(F)c1 [Example 117, 2-(dimethylamino)-N-(3-fluoro-4-(piperidin-1-yl)phenyl)-5-methyloxazole-4-carboxamide]",10 to 100,–
"Cc1oc(N(C)C(C)C)nc1C(=O)Nc1ccc(N2CCCCC2)c(F)c1 [Example 115, N-(3-fluoro-4-(piperidin-1-yl)phenyl)-2-(isopropyl(methyl)amino)-5-methyloxazole-4-carboxamide]",10 to 100,–
"CC1(C)CN(c2nc(C(=O)Nc3cc(F)c(OC4CC5C[C@H]5C4)c(F)c3)c(CC(F)(F)F)o2)C1 (stereo partly drawn) [Example 37, N-(4-{cis-bicyclo[3.1.0]hexan-3-yloxy}-3,5-difluorophenyl)-2-(3,3-dimethylazetidin-1-yl)-5-(2,2,2-trifluoroethyl)oxazole-4-carboxamide]",0.01 to 1,–
